# Reference: PubChem BioAssay (NCI)
#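 Exposure lasted 48 hours, with cells grown in 96-well plates and compounds tested at five concentrations. GI50 is the concentration that inhibits growth by half. TGI marks complete inhibition of growth.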
# Legend:
# Test in all cases: growth of human tumour cells (NCI), 48 h
# HCC-2998 colon = system: HCC-2998 colon
# OVCAR-3 ovarian = system: OVCAR-3 ovarian
# HL-60(TB) leukemia = system: HL-60(TB) leukemia
# U251 CNS = system: U251 CNS
# HT29 colon = system: HT29 colon
# NCI/ADR-RES ovarian = system: NCI/ADR-RES ovarian
# NCI-H522 lung = system: NCI-H522 lung
# SF-268 CNS = system: SF-268 CNS
# CAKI-1 renal = system: CAKI-1 renal
# SK-OV-3 ovarian = system: SK-OV-3 ovarian
# SN12C renal = system: SN12C renal
# A549 NSCLC = system: A549 NSCLC
# COLO 205 colon = system: COLO 205 colon
# SK-MEL-28 melanoma = system: SK-MEL-28 melanoma
# MALME-3M melanoma = system: MALME-3M melanoma
# MDA-MB-435 = system: MDA-MB-435
# SK-MEL-2 melanoma = system: SK-MEL-2 melanoma
# UACC-62 melanoma = system: UACC-62 melanoma
# 786-0 renal = system: 786-0 renal
# HOP-92 NSCLC = system: HOP-92 NSCLC
# A498 renal = system: A498 renal
# MDA-MB-231 breast = system: MDA-MB-231 breast
# CCRF-CEM leukemia = system: CCRF-CEM leukemia
# IGROV1 ovarian = system: IGROV1 ovarian
# RPMI-8226 leukemia = system: RPMI-8226 leukemia
# BT-549 breast = system: BT-549 breast
# SK-MEL-5 melanoma = system: SK-MEL-5 melanoma
# NCI-H460 lung = system: NCI-H460 lung
# NCI-H23 lung = system: NCI-H23 lung
# LOX IMVI melanoma = system: LOX IMVI melanoma
# RXF 393 renal = system: RXF 393 renal
# HCT-15 colon = system: HCT-15 colon
# KM12 colon = system: KM12 colon
# DU-145 prostate = system: DU-145 prostate
# M14 melanoma = system: M14 melanoma
# OVCAR-5 ovarian = system: OVCAR-5 ovarian
# UO-31 renal = system: UO-31 renal
# SNB-19 CNS = system: SNB-19 CNS
# SW-620 colon = system: SW-620 colon
# MOLT-4 leukemia = system: MOLT-4 leukemia
# EKVX NSCLC = system: EKVX NSCLC
# SF-295 CNS = system: SF-295 CNS
# HCT-116 colon = system: HCT-116 colon
# TK-10 renal = system: TK-10 renal
# HS 578T breast = system: HS 578T breast
# SNB-75 CNS = system: SNB-75 CNS
# MCF7 breast = system: MCF7 breast
# UACC-257 melanoma = system: UACC-257 melanoma
# HOP-62 NSCLC = system: HOP-62 NSCLC
# SF-539 CNS = system: SF-539 CNS
# T-47D breast = system: T-47D breast
# PC-3 prostate = system: PC-3 prostate
# K-562 leukemia = system: K-562 leukemia
# NCI-H226 lung = system: NCI-H226 lung
# ACHN renal = system: ACHN renal
# OVCAR-8 ovarian = system: OVCAR-8 ovarian
smiles,measurement,setting,value
CCCc1cc2cc(-n3nc(CC)c4c3CC(C)(C)CC4=O)cc(NC3CCC(O)CC3)c2c(=O)[nH]1 (configuration not stated),GI50,HCC-2998 colon,842 nM
same,TGI,HCC-2998 colon,> 100000 nM
same,GI50,OVCAR-3 ovarian,4430 nM
same,TGI,OVCAR-3 ovarian,> 100000 nM
same,GI50,HL-60(TB) leukemia,315 nM
same,TGI,HL-60(TB) leukemia,> 100000 nM
same,GI50,U251 CNS,3370 nM
same,TGI,U251 CNS,> 100000 nM
same,GI50,HT29 colon,100 nM
same,TGI,HT29 colon,> 100000 nM
same,GI50,NCI/ADR-RES ovarian,3880 nM
same,TGI,NCI/ADR-RES ovarian,> 100000 nM
same,GI50,NCI-H522 lung,1010 nM
same,TGI,NCI-H522 lung,11500 nM
same,GI50,SF-268 CNS,7290 nM
same,TGI,SF-268 CNS,> 100000 nM
same,GI50,CAKI-1 renal,1130 nM
same,TGI,CAKI-1 renal,> 100000 nM
same,GI50,SK-OV-3 ovarian,409 nM
same,TGI,SK-OV-3 ovarian,> 100000 nM
same,GI50,SN12C renal,365 nM
same,TGI,SN12C renal,> 100000 nM
same,GI50,A549 NSCLC,1460 nM
same,TGI,A549 NSCLC,> 100000 nM
same,GI50,COLO 205 colon,464 nM
same,TGI,COLO 205 colon,> 100000 nM
same,GI50,SK-MEL-28 melanoma,869 nM
same,TGI,SK-MEL-28 melanoma,> 100000 nM
same,GI50,MALME-3M melanoma,839 nM
same,TGI,MALME-3M melanoma,> 100000 nM
same,GI50,MDA-MB-435,444 nM
same,TGI,MDA-MB-435,> 100000 nM
same,GI50,SK-MEL-2 melanoma,2270 nM
same,TGI,SK-MEL-2 melanoma,> 100000 nM
same,GI50,UACC-62 melanoma,487 nM
same,TGI,UACC-62 melanoma,> 100000 nM
same,GI50,786-0 renal,2950 nM
same,TGI,786-0 renal,> 100000 nM
same,GI50,HOP-92 NSCLC,1710 nM
same,TGI,HOP-92 NSCLC,8600 nM
same,GI50,A498 renal,2020 nM
same,TGI,A498 renal,> 100000 nM
same,GI50,MDA-MB-231 breast,652 nM
same,TGI,MDA-MB-231 breast,> 100000 nM
same,GI50,CCRF-CEM leukemia,1340 nM
same,TGI,CCRF-CEM leukemia,> 100000 nM
same,GI50,IGROV1 ovarian,831 nM
same,TGI,IGROV1 ovarian,> 100000 nM
same,GI50,RPMI-8226 leukemia,1580 nM
same,TGI,RPMI-8226 leukemia,> 100000 nM
same,GI50,BT-549 breast,2300 nM
same,TGI,BT-549 breast,> 100000 nM
same,GI50,SK-MEL-5 melanoma,1940 nM
same,TGI,SK-MEL-5 melanoma,> 100000 nM
same,GI50,NCI-H460 lung,482 nM
same,TGI,NCI-H460 lung,> 100000 nM
same,GI50,NCI-H23 lung,127 nM
same,TGI,NCI-H23 lung,50800 nM
same,GI50,LOX IMVI melanoma,198 nM
same,TGI,LOX IMVI melanoma,> 100000 nM
same,GI50,RXF 393 renal,408 nM
same,TGI,RXF 393 renal,2410 nM
same,GI50,HCT-15 colon,400 nM
same,TGI,HCT-15 colon,> 100000 nM
same,GI50,KM12 colon,758 nM
same,TGI,KM12 colon,> 100000 nM
same,GI50,DU-145 prostate,530 nM
same,TGI,DU-145 prostate,> 100000 nM
same,GI50,M14 melanoma,572 nM
same,TGI,M14 melanoma,> 100000 nM
same,GI50,OVCAR-5 ovarian,3510 nM
same,TGI,OVCAR-5 ovarian,> 100000 nM
same,GI50,UO-31 renal,568 nM
same,TGI,UO-31 renal,> 100000 nM
same,GI50,SNB-19 CNS,3020 nM
same,TGI,SNB-19 CNS,> 100000 nM
same,GI50,SW-620 colon,370 nM
same,TGI,SW-620 colon,> 100000 nM
same,GI50,MOLT-4 leukemia,503 nM
same,TGI,MOLT-4 leukemia,> 100000 nM
same,GI50,EKVX NSCLC,> 100000 nM
same,TGI,EKVX NSCLC,> 100000 nM
same,GI50,SF-295 CNS,759 nM
same,TGI,SF-295 CNS,> 100000 nM
same,GI50,HCT-116 colon,193 nM
same,TGI,HCT-116 colon,> 100000 nM
same,GI50,TK-10 renal,621 nM
same,TGI,TK-10 renal,> 100000 nM
same,GI50,HS 578T breast,3490 nM
same,TGI,HS 578T breast,> 100000 nM
same,GI50,SNB-75 CNS,6220 nM
same,TGI,SNB-75 CNS,> 100000 nM
same,GI50,MCF7 breast,289 nM
same,TGI,MCF7 breast,> 100000 nM
same,GI50,UACC-257 melanoma,3000 nM
same,TGI,UACC-257 melanoma,> 100000 nM
same,GI50,HOP-62 NSCLC,836 nM
same,TGI,HOP-62 NSCLC,> 100000 nM
same,GI50,SF-539 CNS,1720 nM
same,TGI,SF-539 CNS,89300 nM
same,GI50,T-47D breast,2060 nM
same,TGI,T-47D breast,> 100000 nM
same,GI50,PC-3 prostate,1310 nM
same,TGI,PC-3 prostate,> 100000 nM
same,GI50,K-562 leukemia,185 nM
same,TGI,K-562 leukemia,> 100000 nM
same,GI50,NCI-H226 lung,2620 nM
same,TGI,NCI-H226 lung,> 100000 nM
same,GI50,ACHN renal,495 nM
same,TGI,ACHN renal,> 100000 nM
same,GI50,OVCAR-8 ovarian,2040 nM
same,TGI,OVCAR-8 ovarian,> 100000 nM
